How the values were obtained:
[1] = Permeability of compound by PAMPA-BBB assay; type: ADME; conditions: read-out: permeability
[2] = biological target: Microtubule-associated protein tau (Homo sapiens) (UniProt P10636); assay: Inhibition of tau aggregation (unknown origin) at 20 uM for 72 hrs by thioflavin S based fluorescence analysis
[3] = biological target: T1, Gamma-secretase (Homo sapiens) (UniProt Q96BI3+Q9NZ42+Q8WW43+P49768+Q92542+P49810); assay: Inhibition of gamma secretase in human H4 cells expressing human wild type APP assessed as reduction in amyloid beta 1-40 level at 100 uM for 12 hrs by ELISA; type: cell-based
[4] = biological target: T1, Gamma-secretase (Homo sapiens); assay: Inhibition of gamma secretase in human H4 cells expressing human wild type APP assessed as reduction in amyloid beta 1-42 level at 100 uM for 12 hrs by ELISA; type: cell-based
[5] = biological target: T2, Amyloid-beta precursor protein (Homo sapiens, UniProt P05067); assay: Inhibition of self-induced amyloid beta (1 to 42) (unknown origin) disaggregation at 25 uM
Cholinesterase [6] = biological target: T3, Cholinesterase (Homo sapiens, UniProt P06276); assay: Inhibition of BuChE (unknown origin)
[7] = biological target: T2, Amyloid-beta precursor protein; assay: Inhibition of self-induced amyloid beta (1 to 42) (unknown origin) aggregation at 25 uM
[8] = biological target: T2, Amyloid-beta precursor protein; assay: Inhibition of amyloid beta (1 to 42) (unknown origin) self aggregation at 100 uM and measured after 24 hrs by Thioflavin T based fluorometric assay
[9] = biological target: T2, Amyloid-beta precursor protein; assay: Inhibition of self induced amyloid beta (1 to 42) (unknown origin) aggregation incubated for 24 hrs by Thioflavin T based fluorometric assay
[10] = biological target: T2, Amyloid-beta precursor protein; assay: Inhibition of Cu2+ induced amyloid beta (1 to 42) (unknown origin) aggregation at 25 uM and measured after 24 hrs by Thioflavin T based fluorometric assay
Cholinesterase [11] = biological target: Cholinesterase (Equus caballus, UniProt P81908); assay: Inhibition of equine serum BuChE using butyrylthiocholine iodide as substrate by Ellman's method
Acetylcholinesterase [12] = biological target: T4, Acetylcholinesterase (Homo sapiens, UniProt P22303); assay: Inhibition of recombinant human AChE using acetylthiocholine iodide as substrate by Ellman's method
Beta-secretase 1 = Beta-secretase 1 (Homo sapiens, UniProt P56817); assay: Inhibition of BACE-1 (unknown origin)
Cholinesterase [13] = biological target: T3, Cholinesterase; assay: Inhibition of recombinant human BuChE using butyrylthiocholine iodide as substrate preincubated for 5 mins followed by substrate addition by Ellman's method
Acetylcholinesterase [14] = biological target: T4, Acetylcholinesterase; assay: Inhibition of recombinant human AChE using acetylthiocholine iodide as substrate preincubated for 5 mins followed by substrate addition by Ellman's method
SH-SY5Y = assay: Cytotoxicity against human SH-SY5Y cells assessed as reduction in cell viability for 24 hrs by MTT assay; type: functional, cell-based
HepG2 = assay: Cytotoxicity against human HepG2 cells assessed as reduction in cell viability for 24 hrs by MTT assay; type: functional, cell-based; conditions: HepG2, 24 h
[15] = biological target: Amine oxidase [flavin-containing] A (Homo sapiens, UniProt P21397); assay: Inhibition of recombinant human MAO-A using p-tyramine as substrate preincubated for 15 mins followed by substrate addition and measured after 30 mins by Amplex Red reagent based fluorometric analysis
[16] = biological target: Amine oxidase [flavin-containing] B (Homo sapiens, UniProt P27338); assay: Inhibition of recombinant human MAO-B using p-tyramine as substrate preincubated for 15 mins followed by substrate addition and measured after 30 mins by Amplex Red reagent based fluorometric analysis
[17] = biological target: Glycogen synthase kinase-3 beta (Homo sapiens) (UniProt P49841); assay: Inhibition of GSK-3beta (unknown origin) at 10 uM by Kinase-GLO reagent based assay
SK-N-MC = assay: Antiproliferative activity against human SK-N-MC cells assessed as reduction in cell proliferation incubated for 72 hrs by MTT assay; type: functional, cell-based
Acetylcholinesterase [18] = biological target: T4, Acetylcholinesterase; assay: Inhibition of recombinant human AChE using acetylthiocholine as substrate by Ellman's method
Homo sapiens = species on record: Homo sapiens; assay: Selectivity index, ratio of IC50 for inhibition of human AChE to IC50 for inhibition of human BuChE
[19] = biological target: T2, Amyloid-beta precursor protein; assay: Inhibition of self-induced amyloid beta (1 to 42) (unknown origin) aggregation by Thioflavin T based fluorometric assay
Acetylcholinesterase [20] = biological target: T4, Acetylcholinesterase; assay: Inhibition of human AChE using acetylthiocholine iodide as substrate by Ellman's method
[21] = biological target: 72 kDa type IV collagenase (Homo sapiens, UniProt P08253); assay: Inhibition of MMP-2 (unknown origin) by Fluorometric analysis
Sequence of 72 kDa type IV collagenase (P08253 whole entry): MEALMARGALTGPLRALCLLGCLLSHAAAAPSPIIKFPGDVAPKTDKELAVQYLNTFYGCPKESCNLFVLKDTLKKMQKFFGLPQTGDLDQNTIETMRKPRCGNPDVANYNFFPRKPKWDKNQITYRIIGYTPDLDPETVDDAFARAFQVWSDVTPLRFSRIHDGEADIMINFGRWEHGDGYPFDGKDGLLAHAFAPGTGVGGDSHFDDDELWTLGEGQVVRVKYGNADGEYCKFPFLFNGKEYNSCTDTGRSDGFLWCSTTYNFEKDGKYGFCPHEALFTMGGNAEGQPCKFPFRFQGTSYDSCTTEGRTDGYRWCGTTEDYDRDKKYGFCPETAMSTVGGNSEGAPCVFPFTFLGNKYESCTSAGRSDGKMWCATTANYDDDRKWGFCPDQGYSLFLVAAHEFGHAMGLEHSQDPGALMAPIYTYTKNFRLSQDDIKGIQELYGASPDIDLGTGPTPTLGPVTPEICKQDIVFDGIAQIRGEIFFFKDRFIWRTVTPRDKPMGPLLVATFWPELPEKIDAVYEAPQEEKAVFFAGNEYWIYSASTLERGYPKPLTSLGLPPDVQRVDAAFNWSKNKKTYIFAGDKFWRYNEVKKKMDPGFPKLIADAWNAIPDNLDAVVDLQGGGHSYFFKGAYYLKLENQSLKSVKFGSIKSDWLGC

T2 sequence (P05067 whole entry): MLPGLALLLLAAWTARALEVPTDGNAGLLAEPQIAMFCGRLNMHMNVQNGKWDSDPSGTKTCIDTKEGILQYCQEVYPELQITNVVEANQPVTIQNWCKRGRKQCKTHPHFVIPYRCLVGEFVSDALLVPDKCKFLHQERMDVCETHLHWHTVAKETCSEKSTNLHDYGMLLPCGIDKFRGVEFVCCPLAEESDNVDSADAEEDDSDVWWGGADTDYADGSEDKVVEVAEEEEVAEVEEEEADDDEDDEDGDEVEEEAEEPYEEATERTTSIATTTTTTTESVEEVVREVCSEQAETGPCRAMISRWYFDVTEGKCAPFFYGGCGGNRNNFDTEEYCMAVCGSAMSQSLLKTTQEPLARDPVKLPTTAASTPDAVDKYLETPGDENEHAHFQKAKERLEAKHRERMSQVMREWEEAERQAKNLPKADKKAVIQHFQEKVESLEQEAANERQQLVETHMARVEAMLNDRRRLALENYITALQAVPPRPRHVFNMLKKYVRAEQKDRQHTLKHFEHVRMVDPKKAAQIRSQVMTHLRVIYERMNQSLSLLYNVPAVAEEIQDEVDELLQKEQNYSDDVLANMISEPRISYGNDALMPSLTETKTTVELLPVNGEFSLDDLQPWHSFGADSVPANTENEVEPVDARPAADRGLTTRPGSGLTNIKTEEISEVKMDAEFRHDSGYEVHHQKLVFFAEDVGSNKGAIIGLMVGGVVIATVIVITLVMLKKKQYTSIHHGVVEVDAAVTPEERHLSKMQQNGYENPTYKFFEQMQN
T4 sequence (P22303 whole entry): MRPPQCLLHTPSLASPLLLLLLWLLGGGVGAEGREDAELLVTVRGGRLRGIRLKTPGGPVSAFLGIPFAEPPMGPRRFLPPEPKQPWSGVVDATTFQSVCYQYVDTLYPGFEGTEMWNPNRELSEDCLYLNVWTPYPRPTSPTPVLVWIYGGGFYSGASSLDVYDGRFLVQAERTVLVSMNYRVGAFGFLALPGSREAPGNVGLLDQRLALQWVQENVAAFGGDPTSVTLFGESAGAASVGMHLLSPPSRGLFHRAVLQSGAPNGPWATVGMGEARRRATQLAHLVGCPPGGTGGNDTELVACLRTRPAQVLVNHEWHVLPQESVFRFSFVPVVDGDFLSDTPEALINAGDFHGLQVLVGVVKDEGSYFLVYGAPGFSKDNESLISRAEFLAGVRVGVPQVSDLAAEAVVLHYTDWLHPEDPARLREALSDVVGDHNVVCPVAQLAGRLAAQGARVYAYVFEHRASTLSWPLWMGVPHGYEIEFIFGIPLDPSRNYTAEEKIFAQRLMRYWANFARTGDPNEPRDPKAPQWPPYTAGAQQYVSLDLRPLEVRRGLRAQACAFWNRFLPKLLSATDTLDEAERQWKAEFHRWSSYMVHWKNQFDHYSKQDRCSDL
Sequence of Microtubule-associated protein tau (Homo sapiens) (P10636 whole entry): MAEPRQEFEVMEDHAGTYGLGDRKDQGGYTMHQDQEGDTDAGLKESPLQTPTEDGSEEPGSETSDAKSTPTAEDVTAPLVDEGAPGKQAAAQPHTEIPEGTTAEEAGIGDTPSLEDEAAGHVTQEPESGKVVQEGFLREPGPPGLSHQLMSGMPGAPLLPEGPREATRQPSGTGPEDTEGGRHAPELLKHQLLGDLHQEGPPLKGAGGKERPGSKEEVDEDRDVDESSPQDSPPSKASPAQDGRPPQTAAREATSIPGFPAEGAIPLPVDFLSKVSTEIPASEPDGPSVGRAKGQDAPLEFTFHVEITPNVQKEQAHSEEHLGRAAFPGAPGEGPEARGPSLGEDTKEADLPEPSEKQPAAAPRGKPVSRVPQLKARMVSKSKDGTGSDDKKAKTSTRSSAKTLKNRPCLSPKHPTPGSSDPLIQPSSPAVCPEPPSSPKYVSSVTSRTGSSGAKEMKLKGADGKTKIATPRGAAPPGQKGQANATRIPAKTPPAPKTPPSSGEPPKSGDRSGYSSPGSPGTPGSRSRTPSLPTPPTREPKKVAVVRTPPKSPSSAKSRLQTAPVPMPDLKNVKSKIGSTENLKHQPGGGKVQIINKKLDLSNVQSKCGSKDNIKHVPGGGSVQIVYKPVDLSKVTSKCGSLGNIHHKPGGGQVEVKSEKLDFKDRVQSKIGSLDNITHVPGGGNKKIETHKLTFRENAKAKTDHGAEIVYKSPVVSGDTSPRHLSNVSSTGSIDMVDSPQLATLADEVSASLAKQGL
T3 sequence (P06276 whole entry): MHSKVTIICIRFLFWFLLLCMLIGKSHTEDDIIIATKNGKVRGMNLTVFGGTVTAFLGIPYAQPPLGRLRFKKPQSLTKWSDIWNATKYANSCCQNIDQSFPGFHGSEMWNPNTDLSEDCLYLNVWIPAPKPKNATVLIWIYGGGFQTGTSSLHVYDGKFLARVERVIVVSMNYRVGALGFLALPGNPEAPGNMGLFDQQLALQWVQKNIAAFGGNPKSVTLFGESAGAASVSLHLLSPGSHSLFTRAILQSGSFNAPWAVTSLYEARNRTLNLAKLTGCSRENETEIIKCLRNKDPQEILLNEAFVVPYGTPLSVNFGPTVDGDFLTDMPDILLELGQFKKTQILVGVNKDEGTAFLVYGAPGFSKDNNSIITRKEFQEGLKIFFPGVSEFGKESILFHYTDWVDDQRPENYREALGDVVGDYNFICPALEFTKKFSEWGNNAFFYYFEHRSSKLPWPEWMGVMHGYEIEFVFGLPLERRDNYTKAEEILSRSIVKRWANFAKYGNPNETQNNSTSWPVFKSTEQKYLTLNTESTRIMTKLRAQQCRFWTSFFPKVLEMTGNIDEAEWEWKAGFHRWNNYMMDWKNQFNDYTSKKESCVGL
Sequence of Glycogen synthase kinase-3 beta (Homo sapiens) (P49841 whole entry, looked up): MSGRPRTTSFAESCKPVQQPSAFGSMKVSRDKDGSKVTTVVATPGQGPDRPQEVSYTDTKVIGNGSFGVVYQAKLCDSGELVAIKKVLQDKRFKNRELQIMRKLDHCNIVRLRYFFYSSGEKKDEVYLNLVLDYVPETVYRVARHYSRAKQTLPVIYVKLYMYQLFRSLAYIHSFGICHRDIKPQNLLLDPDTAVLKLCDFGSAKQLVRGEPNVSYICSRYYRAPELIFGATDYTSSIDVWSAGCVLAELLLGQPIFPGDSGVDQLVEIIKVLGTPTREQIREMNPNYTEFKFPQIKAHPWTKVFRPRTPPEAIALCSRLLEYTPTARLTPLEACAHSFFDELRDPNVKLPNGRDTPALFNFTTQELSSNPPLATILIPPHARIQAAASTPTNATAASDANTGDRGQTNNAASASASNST
Sequence of Amine oxidase [flavin-containing] B (P27338 whole entry): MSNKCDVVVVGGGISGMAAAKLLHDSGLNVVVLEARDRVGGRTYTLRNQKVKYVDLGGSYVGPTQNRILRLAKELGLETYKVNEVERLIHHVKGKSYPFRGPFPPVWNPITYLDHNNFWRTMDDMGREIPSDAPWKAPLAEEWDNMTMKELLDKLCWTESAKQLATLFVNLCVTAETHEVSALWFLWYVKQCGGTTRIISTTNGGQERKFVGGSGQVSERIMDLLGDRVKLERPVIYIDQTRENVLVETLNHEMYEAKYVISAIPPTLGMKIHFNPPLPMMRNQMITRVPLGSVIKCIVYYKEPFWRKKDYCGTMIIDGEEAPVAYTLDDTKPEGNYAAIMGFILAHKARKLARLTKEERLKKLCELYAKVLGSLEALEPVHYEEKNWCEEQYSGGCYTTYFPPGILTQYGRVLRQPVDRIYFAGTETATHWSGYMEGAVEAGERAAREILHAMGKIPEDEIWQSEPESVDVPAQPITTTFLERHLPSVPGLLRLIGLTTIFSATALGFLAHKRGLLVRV
Sequence of Cholinesterase (Equus caballus, UniProt P81908) (P81908 whole entry): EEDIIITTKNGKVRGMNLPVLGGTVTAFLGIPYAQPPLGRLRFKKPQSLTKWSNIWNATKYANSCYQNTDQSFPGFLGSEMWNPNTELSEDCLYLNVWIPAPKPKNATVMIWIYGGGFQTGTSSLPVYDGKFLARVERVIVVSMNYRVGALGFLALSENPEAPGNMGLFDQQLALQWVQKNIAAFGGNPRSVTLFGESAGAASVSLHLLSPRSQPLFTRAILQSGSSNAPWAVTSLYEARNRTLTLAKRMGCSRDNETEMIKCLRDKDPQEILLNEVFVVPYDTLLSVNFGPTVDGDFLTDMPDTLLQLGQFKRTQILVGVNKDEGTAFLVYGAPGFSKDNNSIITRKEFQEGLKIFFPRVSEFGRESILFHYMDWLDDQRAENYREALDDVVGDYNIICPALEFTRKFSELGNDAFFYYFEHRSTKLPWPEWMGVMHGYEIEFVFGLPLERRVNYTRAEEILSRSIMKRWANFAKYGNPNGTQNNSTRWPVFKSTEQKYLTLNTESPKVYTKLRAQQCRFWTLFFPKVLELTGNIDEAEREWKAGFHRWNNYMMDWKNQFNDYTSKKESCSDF

SMILES: CC1=C[C@H]2c3c(O)cc(-c4cc5ccc(O)cc5o4)cc3O[C@@]3(c4ccc(O)c5c4OC(C)(C)C=C5)Oc4cc(O)ccc4[C@H](C1)[C@@H]23
- Papp [1]: 8.7 ×10⁻⁶ cm/s
- inhibition [2]: 63.3%

SMILES: O=S(=O)(NC1C2CC3CC(C2)CC1C3)c1cccs1 (stereo not given)
- inhibition [3]: 10%
- inhibition [4]: 22%

SMILES: COc1cc(/C=C/C(=O)N2CCC(c3ncccn3)CC2)ccc1O
- inhibition [5]: 53.1%
- IC50 (Cholinesterase [6]): 3.4 µM
- inhibition [7]: 61.1%

SMILES: CCOC(=O)C(Cc1cn(-c2ccccc2)nn1)(Cc1cn(-c2ccccc2)nn1)NC(C)=O
- inhibition [8]: 96.9%
- IC50 [9]: 8.06 µM

SMILES: CCN(CC)Cc1ccc(/C=C/C(=O)c2ccc(OC)c(OC)c2)cc1O
- inhibition [10]: 20.2%

SMILES: CCN1CCN(c2ccc(-c3nc4ccccc4[nH]3)cc2)CC1
- IC50 (Cholinesterase [11]): 34.9 µM
- IC50 (Acetylcholinesterase [12]): 5.18 µM

SMILES: O=C(OC1O[C@@H]2COC(=O)c3cc(O)c(O)c(O)c3-c3c(cc(O)c(O)c3O)C(=O)O[C@H]2[C@H](OC(=O)c2cc(O)c(O)c(O)c2)[C@H]1OC(=O)c1cc(O)c(O)c(O)c1)c1cc(O)c(O)c(O)c1 (stereo not given in full) [TELLIMAGRANDIN II]
- IC50 (Beta-secretase 1): 20.2 µM

SMILES: CC1=C[C@H]2c3c(O)cc(-c4cc5ccc(O)cc5o4)cc3O[C@@]3(c4ccc(O)cc4O)Oc4cc(O)ccc4[C@H](C1)[C@@H]23
- inhibition [2]: 37.3%

SMILES: COc1ccc2nc3c(c(N)c2c1)C1CC=CC(C3)C1 (stereo not given)
- IC50 (Cholinesterase [13]): 3.76 µM
- IC50 (Acetylcholinesterase [14]): 2.63 µM
- IC50 (SH-SY5Y): 17.8 µM
- IC50 (HepG2): 14.9 µM

SMILES: C#CCOc1ccc(-c2cc(-c3ccc(OCCN4CCOCC4)cc3)nc(N)n2)cc1
- IC50 [15]: 18.3 µM
- IC50 [16]: 9.91 µM

SMILES: CO[C@@H]1C=C[C@@]23c4cc5c(cc4CN(C[C@@H]2OC(=O)c2ccc([N+](=O)[O-])cc2)C3C1)OCO5 (stereo not given in full)
- inhibition [17]: 27%
- IC50 (Acetylcholinesterase [12]): 14.7 µM

SMILES: O=S(=O)(NC12CC3CC(CC(C3)C1)C2)C1CCCS1 (stereo not given)
- inhibition [3]: 26%
- inhibition [4]: 88%

SMILES: O=C(N/N=C/c1ccccn1)c1ccc(C(=O)NC23CC4CC(CC(C4)C2)C3)cc1
- IC50 (SK-N-MC): 42.4 µM

SMILES: Clc1ccc2c(NCCCNCC34CC5CC(CC(C5)C3)C4)ccnc2c1
- IC50 (Acetylcholinesterase [18]): 0.5 µM

SMILES: O=c1cc(/N=N/N=P(CCP(=N/N=N/c2cc(=O)oc3ccccc23)(c2ccccc2)c2ccccc2)(c2ccccc2)c2ccccc2)c2ccccc2o1
- Ratio IC50 (Homo sapiens): 3.81
- IC50 [19]: 338 µM
- IC50 (Acetylcholinesterase [20]): 0.035 µM
- IC50 [21]: 441 µM
